IC50 data for 28 compounds are collected here from ChEMBL document CHEMBL4428102, “Discovery of an Orally Bioavailable Gonadotropin-Releasing Hormone Receptor Antagonist” (J Med Chem, 2016).

The assay has as its target T1, Gonadotropin-releasing hormone receptor (Homo sapiens, UniProt P30968).
T1 sequence (P30968 whole entry): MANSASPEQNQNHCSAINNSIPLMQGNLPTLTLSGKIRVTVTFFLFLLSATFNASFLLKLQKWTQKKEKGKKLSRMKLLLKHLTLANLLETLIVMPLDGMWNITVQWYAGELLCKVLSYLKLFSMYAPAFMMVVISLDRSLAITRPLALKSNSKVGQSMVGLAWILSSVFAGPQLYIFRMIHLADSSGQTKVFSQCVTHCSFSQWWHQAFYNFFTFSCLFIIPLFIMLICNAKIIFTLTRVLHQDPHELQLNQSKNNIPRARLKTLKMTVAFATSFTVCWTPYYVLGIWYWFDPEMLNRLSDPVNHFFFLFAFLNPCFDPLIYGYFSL
The experiment in a line: Displacement of [125I]D-Trp6-LHRH from human GnRH receptor expressed in CHO-K1 cell membranes incubated for 1 hr by competitive binding assay. On the technique in general: In a radioligand displacement assay an active substance lowers the binding of a labelled ligand.
`Cc1c(N2CCN(CCCc3ccccc3)CC2)c(=O)n(C[C@H](N)c2ccccc2)c(=O)n1Cc1c(F)cccc1F`: the IC50 (as a rule, the concentration that gives 50% inhibition) was more than 100 nM. `Cc1c(N2CCN(Cc3ccc[nH]c3=O)CC2)c(=O)n(C[C@H](N)c2ccccc2)c(=O)n1Cc1c(F)cccc1C(F)(F)F` gave an IC50 of more than 100 nM.

Turning to `COc1ccccc1CN1CCN(c2c(C)n(Cc3c(F)cccc3F)c(=O)n(C[C@H](N)c3ccccc3)c2=O)CC1`, the IC50 was more than 1000 nM.

The compound `Cc1c(N2CCNC(CCO)C2)c(=O)n(C[C@H](N)c2ccccc2)c(=O)n1Cc1c(F)cccc1F` (stereo partly drawn) registered an IC50 of more than 100 nM. Compound `Cc1c(N2CCN(Cc3cccc(F)c3F)CC2)c(=O)n(C[C@H](N)c2ccccc2)c(=O)n1Cc1c(F)cccc1F` had an IC50 of 10 nM. As for `Cc1c(N2CCN(Cc3cccc(C(=O)O)c3)CC2)c(=O)n(C[C@H](N)c2ccccc2)c(=O)n1Cc1c(F)cccc1C(F)(F)F`, the IC50 is more than 100 nM. The compound `Cc1c(N2CCN(Cc3ccc(F)cc3)CC2)c(=O)n(C[C@H](N)c2ccccc2)c(=O)n1Cc1c(F)cccc1F` showed a half-inhibitory concentration (IC50) of 48.6 nM. `Cc1cccc(CN2CCN(c3c(C)n(Cc4c(F)cccc4F)c(=O)n(C[C@H](N)c4ccccc4)c3=O)CC2)c1` yielded an IC50 of more than 100 nM. For `Cc1c(N2CCN(Cc3ccccc3[N+](=O)[O-])CC2)c(=O)n(C[C@H](N)c2ccccc2)c(=O)n1Cc1c(F)cccc1F` the value was 13.3 nM. `Cc1c(N2CCC(Cc3ccccc3)C2)c(=O)n(C[C@H](N)c2ccccc2)c(=O)n1Cc1c(F)cccc1F` (stereo partly drawn) returned an IC50 of more than 100 nM.

Take `Cc1c(N2CCCC(Cc3ccccc3)C2)c(=O)n(C[C@H](N)c2ccccc2)c(=O)n1Cc1c(F)cccc1F` (stereo partly drawn): the IC50 was more than 100 nM. For `Cc1c(N2CCCCC2C)c(=O)n(C[C@H](N)c2ccccc2)c(=O)n1Cc1c(F)cccc1F` (stereo partly drawn) the value was more than 100 nM. Take `Cc1c(N2CCN(Cc3ccc([N+](=O)[O-])cc3)CC2)c(=O)n(C[C@H](N)c2ccccc2)c(=O)n1Cc1c(F)cccc1F`: the IC50 is 36.9 nM. With `Cc1c(N2CCNCC2)c(=O)n(C[C@H](N)c2ccccc2)c(=O)n1Cc1c(F)cccc1F`, the IC50 is more than 1000 nM.

Compound `Cc1ccc(CN2CCN(c3c(C)n(Cc4c(F)cccc4F)c(=O)n(C[C@H](N)c4ccccc4)c3=O)CC2)cc1` returned an IC50 of 65.5 nM. `Cc1c(N2CCCC(C)C2)c(=O)n(C[C@H](N)c2ccccc2)c(=O)n1Cc1c(F)cccc1F` (stereo partly drawn): the IC50 came to 80.3 nM. On to `Cc1c(N2CCN(Cc3cccc(C(F)(F)F)c3F)CC2)c(=O)n(C[C@H](N)c2ccccc2)c(=O)n1Cc1c(F)cccc1F`, for which the IC50 was found to be 1.1 nM.

`Cc1c(N2CCN(c3ccccn3)CC2)c(=O)n(C[C@H](N)c2ccccc2)c(=O)n1Cc1c(F)cccc1F` registered a 50% inhibitory concentration (IC50) of more than 1000 nM. Compound `Cc1c(N2CCN(Cc3ccccc3Cl)CC2)c(=O)n(C[C@H](N)c2ccccc2)c(=O)n1Cc1c(F)cccc1F` returned a concentration for half-maximal inhibition (IC50) of 19.1 nM. In turn, `Cc1c(N2CCN(Cc3ccc(C#N)cc3)CC2)c(=O)n(C[C@H](N)c2ccccc2)c(=O)n1Cc1c(F)cccc1F` gave an IC50 of 10 nM. Take `Cc1c(N2CCN[C@H](Cc3ccccc3)C2)c(=O)n(C[C@H](N)c2ccccc2)c(=O)n1Cc1c(F)cccc1F`: the IC50 was more than 100 nM. For `Cc1c(N2CCN(Cc3ccccc3C(F)(F)F)CC2)c(=O)n(C[C@H](N)c2ccccc2)c(=O)n1Cc1c(F)cccc1F` the value was 65.6 nM; for `Cc1c(N2CCN(Cc3cccc(F)c3)CC2)c(=O)n(C[C@H](N)c2ccccc2)c(=O)n1Cc1c(F)cccc1F`, 3.8 nM. For `Cc1c(N2CCN(CC(=O)c3ccccc3Cl)CC2)c(=O)n(C[C@H](N)c2ccccc2)c(=O)n1Cc1c(F)cccc1F` the value was more than 100 nM; for `Cc1c(N2CCN(Cc3cccc(C#N)c3)CC2)c(=O)n(C[C@H](N)c2ccccc2)c(=O)n1Cc1c(F)cccc1F`, 5 nM; for `Cc1c(N2CCC(c3ccccc3)C2)c(=O)n(C[C@H](N)c2ccccc2)c(=O)n1Cc1c(F)cccc1F` (stereo partly drawn), more than 100 nM. `Cc1c(N2CCN(Cc3cccnc3)CC2)c(=O)n(C[C@H](N)c2ccccc2)c(=O)n1Cc1c(F)cccc1F` displayed an IC50 of 13.9 nM. Compound `Cc1c(N2CCCC(c3ccccc3)C2)c(=O)n(C[C@H](N)c2ccccc2)c(=O)n1Cc1c(F)cccc1F` (stereo partly drawn) had an IC50 of more than 100 nM.
